Test results taken from patent publication US7959954B2, “Pharmaceutical composition for treatment of diabetes and dyslipidemia” (Council of Scientific and Industrial Research, priority 2005, dated 2011).
Marks after values point to notes of the source that are not given here.

How the values were obtained:
[1] = tested on: sucrose challenged Streptozotocin induced diabetic rats; experiment: STZ-s model, sucrose challenged low dosed Streptozotocin induced diabetic rats; type: in vivo, Male albino rats of Sprague Dawley strain; settings: for STZ-s model % change 5 h / STZ-s model % change 24 h: dose 25 mg/kg
Description: [formula] […] [B] (ii) STZ-s Procedure
Male albino rats of Sprague Dawley strain of the body weight 160±20 g were selected for this study. Streptozotocin (Sigma, USA) was dissolved in 100 mM citrate buffer pH 4.5 and calculated amount of the fresh solution was injected to overnight fasted rats (45 mg./Kg.) intraperitonially. Blood was checked 48 hours later by glucosetrips and animals showing blood glucose values between 144 to 270 mg./dl. (8 to 15 mM) were included in the experiments and termed diabetic. The diabetic animals were divided into groups comprising 5 to 6 animals in each group. […] The animals of the control group were given an equal amount of 1.0% gum acacia. A sucrose load of the 2.5 g/Kg of the body weight was given after 30 minutes of the drug administration. After 30 minutes of the post sucrose load blood glucose level was again checked by glucostrips at 30, 60, 90, 120, 180, 240, 300 minutes and 24 hours respectively. […] The food but not the water was withheld from the cages during the experimentation. Comparing the AUC of experimental and control groups determined the percent of antihyperglycemic activity. Statistical comparison between groups was made by the Student's “t” test.

[2] = tested on: STZ injected rats; experiment: STZ model, antihyperglycemic activity; type: in vivo, Sprague-Dauley [SD] strain male albino rats; settings: dose 100 mg/kg
Description: Drug metformate was administered half an hour before glucose was given. […] Statistical significance was done by AUC-method. [B] (i) STZ-Model Procedure Sprague-Dauley [SD] strain male albino rats of body weight 160±20 g were taken for study. Animals in 3 cage were kept for 7 days under standard experimental conditions before the experiment. Animals were given standard rat-pellet diet and tap-water ad-libitum. Day ‘0’-Day before experiment, animals were kept for overnight starvation. […] USA] was injected intraperitoneally to all the starved animals at a dose of 60 mg/kg, dissolved in 100 m M citrate buffer, pH 4.5. Day ‘2’ rats remained as such in the same conditions. Food pellets were removed on the penultimate day at 5:00 P.M. in the evening and animals were kept on over night starvation. […] Blood was taken from tail of the rats by stab-techniques and the glucose level was estimated using “Advantage Glucometer” of Boehringer Mannheim Co, USA. […] Group-I was kept only for control [STZ-injection were given only]. Group II were treated with STZ+test samples. […] [formula] The extract/fraction/compounds found active were statistically analyzed to determine area under curve [AUC] by plotting the blood-glucose values against time. [B] (ii) STZ-s Procedure

[3] = tested on: dislipidemic hamster; experiment: Antidyslipidemic activity in dislipidemic (high fat diet) hamster model;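 note: male golden Syrian hamsters on high fat diet for 10 days, oral treatment days 4–10, non-fasted plasma sampled on day 10, compared with vehicle-treated high fat diet controls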
Description: Test Models used for the Evaluation of the Antidyslipidemic Activity:
Male golden Syrian Hamsters weighing 120-130 g were divided into dyslipidemic and dislipidemic plus drug treated groups of the eight animals in each groups were used. Feeding with high fat diet (supplied by NOVO—NORDISK, Dennmark, Cat produced Dyslipidemia. No-99122211). Dislipidemic hamsters had free access to HFD and water ad-libitum. throughout the experiment for ten days. The test sample was fed orally at a dose of 250 mg./kg. from day-4 to day-10 (7 days) in the HFD hamsters. Normal hamsters fed with HFD and given drug vehicle only, served as control animals. Body weight of each animal and diet intake of each animal group was recorded daily to check the effect of the drug on food intake and body weight of the animals. At the end of the experiment i.e. on day 10th, the blood of non fasted animals were withdrawn in two sets of tubes in which one set contains 120 μl NaF (4.5 mg./ml) and after 15 min. in cold, plasma was separated. Biochemical analysis of plasma with out NaF was performed on the same day for Triglycerides (TG) total Cholesterol (TC) HDL-Cholesterol using enzymatic diagnostic kits. Similarly the plasma containing NaF Glucose was assayed for glucose, glycerol and free Fatty acids (FFA) on Synchron CX-5. Clinical System Beckmann Coulter Instrument.

[4] = tested on: db/db mice; experiment: db/db mice antihyperglycemic activity (day 6 post prandial, day 10 OGTT); type: in vivo, C57BL/KsBom-db mice
Excerpt: (§1) The db/db mouse is a well-characterized model of type-2 diabetes. The background for the db/db mouse is the C57BL/Ks strain. The major deficiency of the C57BL.Ks Bom-db mouse (db/db) is lack of a functional leptin receptor. This leads to defective leptin signaling and a complete lack of feedback from leptin. […] The db/db mouse develops NIDDM from around week 10. The disease is stable until week 20, where destruction of pancreatic β-cells can be recognized clinically as decreasing levels of plasma insulin and very severe […]. The db/db mouse has a maximal life span of 9-12 months. The advantage of using male mice for experimental purposes is that the fluctuations in plasma parameters are less than in females where the oestrogens cycle affects the clinical diabetes. The optimal age of db/db mice used for experiments will be from week-12 to 18 when they have developed NIDDM with diabetic dyslipidemia but still have functional β-cells in the pancreas. C57BL/KsBom-db mice 12-18 weeks, 40-50 g bred in the animal house of CDRI, Lucknow. 10 mice were housed in groups of (5 males and 5 females) were housed in groups of 5 individuals (same sex) in a room controlled for temperature (23±2.0° C.) and 12/12 hours light/dark cycle (light on 6.00AM.). Body weight was measured daily from day 1 to day 10. All animals had free access to fresh water and to normal chow except on the days of the post prandial protocol day 6 and during the overnight fast before the OGTT on day 10. The animals always had access to water during experimental periods. Blood glucose was checked every morning up till day 5. On day 6 post prandial protocol was employed, in this method blood glucose was checked at −0.5 h and 0 h. The test samples were given to the treatment group whereas vehicle received the only gum acacia (1.0%); the blood glucose was again checked at 1, 2, 3, 4 and 6 h posttest drug treatment. On day 8, blood was collected for serum insulin and lipid profile measurements and finally on day 10 an oral glucose tolerance test (OGTT) was performed after an overnight fasting. Blood glucose was measured at 0.0 min. post treatment, at this juncture glucose solution was given at a dose of 3 g./Kg. to all the groups including vehicle; the profile of blood glucose was checked at 30, 60, 90 and 120 minutes post glucose administration.
Table-5-a represents the antihyperglycemic activity profile of 50% Aq.-EtOH extract and chloroform soluble fraction of the aq.-ethanolic extract and the standard drug Roziglitazone in hyperglycemic and hyperinsulinemic db/db mice. The results of the antidiabetic evaluations of the epicarp extracts/fractions/compounds in GLM and STZ models are given in table-1

[5] = tested on: db/db mice; experiment: Anti-dislipidemic activity (lipid profile) in db/db mice; type: in vivo, C57BL/KsBom-db mice; settings: dose 10 mg/Kg
Excerpt: as §1, with “The test samples were given to the treatment group whereas vehicle received the only gum acacia (1.0%); the blood glucose was again checked at 1, 2, 3, 4 and 6 h posttest drug treatment. On day 8, blood was collected for serum insulin and lipid profile measurements and finally on day 10 an oral glucose tolerance test (OGTT) was performed after an overnight fasting.” left out

## CCCCCCCCCCCCCCCC(=O)O [Palmitic acid]
[1]; dose 100 mg/Kg
  % Activity in STZ-s model: −5.6%

## Photogedunin
[1]; dose 100 mg/Kg
  % Activity in STZ-s model: +30.5%

## CC(=O)O[C@@H]1C[C@H]2C(C)(C)C(=O)C=C[C@]2(C)[C@H]2CC[C@@]3(C)[C@H](c4ccoc4)OC(=O)[C@H]4O[C@]43[C@@]21C [Gedunin]
[2]
  In STZ model % lowering: 10.5%
[2]; listed as gedunin
  In STZ model % lowering: promising activity
[1]; rat, in vivo
  activity in STZ-s model: active
[3]; dose 25 mg/kg
  CHOL (Cholesterol): +14%
  FFA (Free Fatty Acid): −36*** %
  GLU (Glucose): −28*** %
  GLY (Glycerol): −22%
  H/C (High density lipoprotein/cholesterol ratio): +11%
  HDL (High Density Lipoprotein): +27* %
  TG (Triglycerides): −47*** %
[3]; hamster, in vivo
  activity in antidislipidemic hamster model: active

## CC[C@H](CC[C@@H](C)[C@H]1CC[C@H]2[C@@H]3CC=C4C[C@@H](O[C@@H]5O[C@H](CO)[C@@H](O)[C@H](O)[C@H]5O)CC[C@]4(C)[C@H]3CC[C@]12C)C(C)C [β-Sitosterol-β-D-glucoside]
[1]; dose 100 mg/Kg
  % Activity in STZ-s model: +10.1%

## CN(C)C(=N)N=C(N)N [Metformin, reference compound]
[1]; 5 h
  STZ-s model % change 5 h: −23.6** %
[1]; 24 h
  STZ-s model % change 24 h: −26.5** %
[1]; dose 100 mg/Kg, 5 h
  % Antihyperglycemic activity 5 h: 23.6* ** %
[1]; dose 100 mg/Kg, 24 h
  % Antihyperglycemic activity 24 h: 26.5* * * %

## Xyloccensin-E
[1]; 5 h
  STZ-s model % change 5 h: −6.91%
[1]; 24 h
  STZ-s model % change 24 h: −0.34%
[3]; dose 10 mg/kg
  CHOL (Cholesterol): −18%
  FFA (Free Fatty Acid): −43* %
  H/C (High density lipoprotein/cholesterol ratio): −10%
  HDL (High Density Lipoprotein): −25%
  TG (Triglycerides): −22%

## CC(C)OC(=O)C(C)(C)Oc1ccc(C(=O)c2ccc(Cl)cc2)cc1 [Fenofibrate, reference compound]
[3]; dose 108.24 mg/kg (300 μmole)
  CHOL (Cholesterol): −18* %
  FFA (Free Fatty Acid): −20* %
  GLU (Glucose): −22%
  GLY (Glycerol): −36** %
  H/C (High density lipoprotein/cholesterol ratio): +10%
  TG (Triglycerides): −42* %

## CN(CCOc1ccc(CC2SC(=O)NC2=O)cc1)c1ccccn1 (stereo not shown) [Roziglitazone]
[4]; 10 mg/Kg
  antidiabetic effect in db/db mice: same order of activities
[4]; dose 3.0 mg/Kg, Day 6
  % Antihyperglycemic activity Day 6: 6.24* %
[4]; dose 3.0 mg/Kg, Day 10
  % Antihyperglycemic activity Day 10: 48.5* ** %
[4]; dose 10 mg/Kg, Day 6
  Antihyperglycemic activity Day 6: −13.8 **
[4]; dose 10 mg/Kg, Day 10
  Antihyperglycemic activity Day 10: −27.4 ***
[5]
  Anti-dislipidemic activity CHOL: −5.5
  Anti-dislipidemic activity HDL-C: +7.14
  Anti-dislipidemic activity TG: −16.0

## CC[C@H](CC[C@@H](C)[C@H]1CC[C@H]2[C@@H]3CC=C4C[C@@H](O)CC[C@]4(C)[C@H]3CC[C@]12C)C(C)C [β-Sitosterol]
[1]; 5 h
  STZ-s model % change 5 h: Nil
[1]; 24 h
  STZ-s model % change 24 h: Nil
[3]; dose 25 mg/kg
  FFA (Free Fatty Acid): −38*** %
  GLY (Glycerol): −14%
  H/C (High density lipoprotein/cholesterol ratio): −7%
  HDL (High Density Lipoprotein): −5%
  TG (Triglycerides): −7%

## Xyloccensin-I
[1]; 5 h
  STZ-s model % change 5 h: Nil
[1]; 24 h
  STZ-s model % change 24 h: Nil
[3]; dose 25 mg/kg
  FFA (Free Fatty Acid): −17%
  GLY (Glycerol): −5%
  H/C (High density lipoprotein/cholesterol ratio): −7%
  HDL (High Density Lipoprotein): −5%
